The record followed here is US20240307382A1, “MODULATORS OF THE INTEGRATED STRESS PATHWAY” (Calico Life Sciences LLC, priority 2017, published 2024).

The assay concerns HEK293T cells carrying the ATF4 luciferase reporter. As to the kind of experiment: ATF4-Luc assay (ATF4 luciferase reporter, tunicamycin-treated cells). It is filed as cell-based. The following applies: Homo sapiens, HEK-293T, 1 μg/mL tunicamycin, 7 hours. The procedure, abridged: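 A stable HEK293T reporter line was made by placing the full-length human ATF4 5′-UTR ahead of a firefly luciferase sequence without its start methionine, delivered by retroviral transduction and puromycin selection. Cells were seeded at 30,000 per well in polylysine-coated 384-well plates, exposed next day to 1 μg/mL tunicamycin plus compound for 7 hours, and luminescence was read with One Glo.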
In general terms: In a reporter assay the amount or activity of a reporter protein is the signal.
In general, EC50 refers to the concentration at which the effect is half-maximal. Consider `CC(C)Oc1ccc(C(=O)NC23CCC(NC(=O)COc4ccc(Cl)c(Cl)c4)(CC2)[C@@H](O)C3)nc1` [Compound 1028, N-{(3S)-4-[2-(3,4-dichlorophenoxy)acetamido]-3-hydroxybicyclo[2.2.2]octan-1-yl}-5-[(propan-2-yl)oxy]pyridine-2-carboxamide], for which the EC50 is 50 to 250 nM.
As for `Cc1ccc(C(=O)NC23CCC(NC(=O)COc4ccc(Cl)c(Cl)c4)(CC2)[C@@H](O)C3)nc1` [Compound 1029, N-{(3S)-4-[2-(3,4-dichlorophenoxy)acetamido]-3-hydroxybicyclo[2.2.2]octan-1-yl}-5-methylpyridine-2-carboxamide], the figure is under 50 nM.
Consider `O=C(COc1ccc(Cl)c(Cl)c1)NC12CCC(NC(=O)c3cc(C(F)(F)F)ccn3)(CC1)C[C@@H]2O` [Compound 1030, N-{(3S)-4-[2-(3,4-dichlorophenoxy)acetamido]-3-hydroxybicyclo[2.2.2]octan-1-yl}-4-(trifluoromethyl)pyridine-2-carboxamide], for which the EC50 was 50 to 250 nM.
The same measure for `O=C(COc1ccc(Cl)c(Cl)c1)NC12CCC(NC(=O)c3ccc(C(F)(F)F)cn3)(CC1)C[C@@H]2O` [Compound 1031, N-{(3S)-4-[2-(3,4-dichlorophenoxy)acetamido]-3-hydroxybicyclo[2.2.2]octan-1-yl}-5-(trifluoromethyl)pyridine-2-carboxamide]: under 50 nM; for `N#Cc1ccnc(C(=O)NC23CCC(NC(=O)COc4ccc(Cl)c(Cl)c4)(CC2)[C@@H](O)C3)c1` [Compound 1032, 4-cyano-N-{(3S)-4-[2-(3,4-dichlorophenoxy)acetamido]-3-hydroxybicyclo[2.2.2]octan-1-yl}pyridine-2-carboxamide]: under 50 nM.
The same measure for `N#Cc1ccc(C(=O)NC23CCC(NC(=O)COc4ccc(Cl)c(Cl)c4)(CC2)[C@@H](O)C3)nc1` [Compound 1033, 5-cyano-N-{(3S)-4-[2-(3,4-dichlorophenoxy)acetamido]-3-hydroxybicyclo[2.2.2]octan-1-yl}pyridine-2-carboxamide]: under 50 nM; for `Cc1nc(C(=O)NC23CCC(NC(=O)COc4ccc(Cl)c(Cl)c4)(CC2)[C@@H](O)C3)ccc1C#N` [Compound 1034, 5-cyano-N-{(3S)-4-[2-(3,4-dichlorophenoxy)acetamido]-3-hydroxybicyclo[2.2.2]octan-1-yl}-6-methylpyridine-2-carboxamide]: under 50 nM; for `O=C(COc1ccc(Cl)c(F)c1)NC12CCC(NC(=O)c3ncc(-c4ccccc4)s3)(CC1)C[C@@H]2O` [Compound 1035, N-{(3S)-4-[2-(4-chloro-3-fluorophenoxy)acetamido]-3-hydroxybicyclo[2.2.2]octan-1-yl}-5-phenyl-1,3-thiazole-2-carboxamide]: under 50 nM.
The same measure for `O=C(COc1ccc(Cl)c(F)c1)NC12CCC(NC(=O)c3coc(-c4ccccc4)n3)(CC1)C[C@@H]2O` [Compound 1036, N-{(3S)-4-[2-(4-chloro-3-fluorophenoxy)acetamido]-3-hydroxybicyclo[2.2.2]octan-1-yl}-2-phenyl-1,3-oxazole-4-carboxamide]: under 50 nM.
On to `Cn1nc(C(=O)NC23CCC(NC(=O)COc4ccc(Cl)c(F)c4)(CC2)[C@@H](O)C3)cc1-c1ccccc1` [Compound 1037, N-{(3S)-4-[2-(4-chloro-3-fluorophenoxy)acetamido]-3-hydroxybicyclo[2.2.2]octan-1-yl}-1-methyl-5-phenyl-1H-pyrazole-3-carboxamide], for which the EC50 was under 50 nM.
As for `O=C(COc1ccc(Cl)c(F)c1)NC12CCC(NC(=O)c3nc(-c4ccccc4)cs3)(CC1)C[C@@H]2O` [Compound 1038, N-{(3S)-4-[2-(4-chloro-3-fluorophenoxy)acetamido]-3-hydroxybicyclo[2.2.2]octan-1-yl}-4-phenyl-1,3-thiazole-2-carboxamide], the figure is under 50 nM.
As for `O=C(COc1ccc(Cl)c(F)c1)NC12CCC(NC(=O)c3cc(-c4ccccc4)on3)(CC1)C[C@@H]2O` [Compound 1039, N-{(3S)-4-[2-(4-chloro-3-fluorophenoxy)acetamido]-3-hydroxybicyclo[2.2.2]octan-1-yl}-5-phenyl-1,2-oxazole-3-carboxamide], the figure is under 50 nM.
The same measure for `O=C(COc1ccc(Cl)c(F)c1)NC12CCC(NC(=O)c3csc(-c4ccccc4)n3)(CC1)C[C@@H]2O` [Compound 1040, N-{(3S)-4-[2-(4-chloro-3-fluorophenoxy)acetamido]-3-hydroxybicyclo[2.2.2]octan-1-yl}-2-phenyl-1,3-thiazole-4-carboxamide]: under 50 nM; for `O=C(COc1ccc(Cl)c(Cl)c1)NC12CCC(NC(=O)c3cnc(-c4ccccc4)o3)(CC1)C[C@@H]2O` [Compound 1041, N-{(3S)-4-[2-(3,4-dichlorophenoxy)acetamido]-3-hydroxybicyclo[2.2.2]octan-1-yl}-2-phenyl-1,3-oxazole-5-carboxamide]: under 50 nM; for `O=C(COc1ccc(Cl)c(F)c1)NC12CC(NC(=O)c3cnc(-c4cccnc4)o3)(C1)C2` [Compound 1042, N-{3-[2-(4-chloro-3-fluorophenoxy)acetamido]bicyclo[1.1.1]pentan-1-yl}-2-(pyridin-3-yl)-1,3-oxazole-5-carboxamide]: under 50 nM.
`O=C(COc1ccc(Cl)c(Cl)c1)NC12CC(NC(=O)c3cnc(C(F)(F)F)o3)(C1)C2` [Compound 1043, N-{3-[2-(3,4-dichlorophenoxy)acetamido]bicyclo[1.1.1]pentan-1-yl}-2-(trifluoromethyl)-1,3-oxazole-5-carboxamide]: the 50% effective concentration (EC50) lay within 50 to 250 nM.
As for `O=C(COc1ccc(Cl)c(F)c1)NC12CC(NC(=O)c3cnc(C(F)(F)F)o3)(C1)C2` [Compound 1044, N-{3-[2-(4-chloro-3-fluorophenoxy)acetamido]bicyclo[1.1.1]pentan-1-yl}-2-(trifluoromethyl)-1,3-oxazole-5-carboxamide], the figure is 50 to 250 nM.
As for `O=C(COc1ccc(Cl)c(F)c1)NC12CC(Nc3cncc(C(F)(F)F)c3)(C1)C2` [Compound 1045, 2-(4-chloro-3-fluorophenoxy)-N-(3-{[5-(trifluoromethyl)pyridin-3-yl]amino}bicyclo[1.1.1]pentan-1-yl)acetamide], the figure is over 2000 nM.
The same measure for `Cn1nnc(-c2ccc(NC34CC(NC(=O)COc5ccc(Cl)c(F)c5)(C3)C4)cn2)n1` [Compound 1046, 2-(4-chloro-3-fluorophenoxy)-N-(3-{[6-(2-methyl-2H-tetrazol-5-yl)pyridin-3-yl]amino}bicyclo[1.1.1]pentan-1-yl)acetamide]: over 2000 nM.
Consider `O=C(COc1ccc(Cl)c(F)c1)NC12CCC(NC(=O)c3ccc4c(c3)OC(F)(F)O4)(CC1)NC2=O` [Compound 1047, N-{4-[2-(4-chloro-3-fluorophenoxy)acetamido]-3-oxo-2-azabicyclo[2.2.2]octan-1-yl}-2,2-difluoro-2H-1,3-benzodioxole-5-carboxamide], for which the concentration giving a half-maximal response (EC50) is over 2000 nM.
As for `O=C(COc1ccc(Cl)c(Cl)c1)NC12CCC(NC(=O)c3cc(C(F)F)no3)(CC1)NC2=O` [Compound 1048, N-{4-[2-(3,4-dichlorophenoxy)acetamido]-3-oxo-2-azabicyclo[2.2.2]octan-1-yl}-3-(difluoromethyl)-1,2-oxazole-5-carboxamide], the figure is over 2000 nM; as for `Cc1cc(C(=O)NC23CCC(NC(=O)COc4ccc(Cl)c(Cl)c4)(CC2)C(=O)N3)on1` [Compound 1049, N-{4-[2-(3,4-dichlorophenoxy)acetamido]-3-oxo-2-azabicyclo[2.2.2]octan-1-yl}-3-methyl-1,2-oxazole-5-carboxamide], over 2000 nM.
The same measure for `O=C(COc1ccc(Cl)c(F)c1)NC12CCC(NC(=O)c3cc(C(F)F)no3)(CC1)NC2=O` [Compound 1050, N-{4-[2-(4-chloro-3-fluorophenoxy)acetamido]-3-oxo-2-azabicyclo[2.2.2]octan-1-yl}-3-(difluoromethyl)-1,2-oxazole-5-carboxamide]: over 2000 nM; for `Cc1cc(C(=O)NC23CCC(NC(=O)COc4ccc(Cl)c(F)c4)(CC2)C(=O)N3)on1` [Compound 1051, N-{4-[2-(4-chloro-3-fluorophenoxy)acetamido]-3-oxo-2-azabicyclo[2.2.2]octan-1-yl}-3-methyl-1,2-oxazole-5-carboxamide]: over 2000 nM.
The same measure for `O=C(COc1ccc(Cl)c(Cl)c1)NC12CCC(NC(=O)c3coc(C(F)F)n3)(CC1)C[C@@H]2O` [Compound 1052, N-{(3S)-4-[2-(3,4-dichlorophenoxy)acetamido]-3-hydroxybicyclo[2.2.2]octan-1-yl}-2-(difluoromethyl)-1,3-oxazole-4-carboxamide]: under 50 nM; for `O=C(NC12CCC(NC(=O)c3cnc(-c4ccccc4)o3)(CC1)[C@@H](O)C2)c1cnc(-c2ccccc2)o1` [Compound 1053, N,N′-[(2S)-2-hydroxybicyclo[2.2.2]octane-1,4-diyl]bis(2-phenyl-1,3-oxazole-5-carboxamide)]: under 50 nM.
Regarding `O=C(NC12CCC(NC(=O)c3cnc(-c4ccccc4)o3)(CC1)C2)c1cnc(-c2ccccc2)o1` [Compound 1055, N,N′-(bicyclo[2.2.1]heptane-1,4-diyl)bis(2-phenyl-1,3-oxazole-5-carboxamide)], the half-maximal effective concentration (EC50) is 50 to 250 nM.
Consider `Cc1cnc(C(=O)NC23CC(NC(=O)c4cnc(-c5ccccc5)o4)(C2)C3)cn1` [Compound 1056, 5-methyl-N-{3-[(2-phenyl-1,3-oxazole-5-carbonyl)amino]bicyclo[1.1.1]pentan-1-yl}pyrazine-2-carboxamide], for which the half-maximal effective concentration (EC50) lay within 250 to 1000 nM.
The same measure for `O=C(NC12CC(NC(=O)c3cnc(-c4ccccc4)o3)(C1)C2)c1cnc(-c2ccccc2)o1` [Compound 1057, N,N′-(bicyclo[1.1.1]pentane-1,3-diyl)bis(2-phenyl-1,3-oxazole-5-carboxamide)]: under 50 nM; for `O=C(NC12CC(NC(=O)c3cnc(-c4ccccc4)o3)(C1)C2)c1cnc(C(F)F)cn1` [Compound 1058, 5-(difluoromethyl)-N-{3-[(2-phenyl-1,3-oxazole-5-carbonyl)amino]bicyclo[1.1.1]pentan-1-yl}pyrazine-2-carboxamide]: 50 to 250 nM.
